Values of other authors, collected in patent US8088413B2, “Methods for improved cryo-chemotherapy tissue ablation” (Nuvue Therapeutics, Inc., priority 2004, dated 2012).

Assays:
human prostate cancer = conditions: pretreatment; temperatures close to 0° C.
[1] = test system: human prostate cancer cell line, PC3; conditions: free drug given 2 to 4 days prior to freezing; drug and cryo levels individually ineffective

| Compound | effect on cryoinjury (human prostate cancer) | kill efficacy of cryoinjury [1] |
| --- | --- | --- |
| Tumor Necrosis Factor-alpha | augments the cryoinjury | – |
| O=c1[nH]cc(F)c(=O)[nH]1 [5-fluorouracil (5-FU), 5-fluorouracil] | – | increased kill efficacy |
